# According to PubChem BioAssay AID860 (Vanderbilt High Throughput Screening Facility, 2007):
# pIC50: −log10 of the molar value.
# Target: Muscarinic acetylcholine receptor M4 (Rattus norvegicus) (UniProt P08485)
# Assay: rat M4 receptor inhibition concentration-response – cell-based, antagonist mode, counter-screen for M1 allosteric modulator project, dose response (AID 860)
# Conditions: rat M4-expressing cells, calcium fluorescence, antagonist mode at EC80 agonist
# Muscarinic acetylcholine receptor M4 (Rattus norvegicus), sequence (P08485 whole entry, looked up): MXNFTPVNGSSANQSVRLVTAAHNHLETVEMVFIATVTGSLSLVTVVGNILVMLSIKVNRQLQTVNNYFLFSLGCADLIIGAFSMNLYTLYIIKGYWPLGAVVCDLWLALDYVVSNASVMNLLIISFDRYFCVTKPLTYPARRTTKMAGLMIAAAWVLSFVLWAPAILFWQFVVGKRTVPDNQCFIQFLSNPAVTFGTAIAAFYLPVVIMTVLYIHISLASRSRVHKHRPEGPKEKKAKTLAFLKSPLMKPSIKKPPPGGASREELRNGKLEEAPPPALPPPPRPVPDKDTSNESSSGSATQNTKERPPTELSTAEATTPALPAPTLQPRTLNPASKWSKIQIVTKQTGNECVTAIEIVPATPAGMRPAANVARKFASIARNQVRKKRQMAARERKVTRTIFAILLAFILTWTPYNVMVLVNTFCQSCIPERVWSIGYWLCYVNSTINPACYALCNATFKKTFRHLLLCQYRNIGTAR
row,SMILES,pIC50
1,Cc1nc2c(o1)CCc1ccccc1C2N1CCN(C)CC1 (centres undefined),7.42
2,CCN(CCCCOC(=O)c1ccc(OC)c(OC)c1)C(C)Cc1ccc(OC)cc1 (centres undefined),6.13
3,CN(C)CCC=C1c2ccccc2CCc2ccccc21,5.94
4,OC(CCN1CCCCC1)(c1ccccc1)c1ccccc1,6.95
5,CCN1C(=O)/C(=C\N2CCCCCC2)SC1=S,6.12
6,CN1CCC(=C2c3ccccc3C=Cc3ccccc32)CC1,6.87
7,CCCC(CCC)C(=O)OC1C[C@H]2CC[C@@H](C1)[N+]2(C)C (some centres undefined),7.53
8,CCC(C)N(CCNC(=O)CC1Oc2ccc(C)cc2NC1=O)C1CCCCC1 (centres undefined),6.24
9,CNCCCC1c2ccccc2C=Cc2ccccc21,6.03
10,O=C(OCCN1CCCC1)C1(c2ccccc2)CCCC1,6.49
11,O=C(NC1CCN(Cc2ccccc2)CC1)C1COc2ccccc2O1 (centres undefined),6.39
12,OC(CCN1CCCC1)(c1ccccc1)C1CCCCC1 (centres undefined),7.46

# Continued by rising pIC50, values first:
row,pIC50,SMILES
1,5.89,COC(=O)c1ccc(CSc2nc(C)nc3c2c(=O)n(C)c(=O)n3C)o1
2,6.01,O=C(CN1CCCC(O)C1)N1c2ccccc2Sc2ccc(C(F)(F)F)cc21 (centres undefined)
3,6.07,CCC(C)N(CCNC(=O)CC1Oc2ccccc2NC1=O)C1CCCCC1 (centres undefined)
4,6.09,CCN(CC)c1ccc(C2C(C(=O)OCCOC(C)C)=C(C)NC3=C2C(=O)CCC3)cc1 (centres undefined)
5,6.12,O=C(CC(c1ccccc1O)N1CCCCC1)N1CCCCC1 (centres undefined)
6,6.13,CCN(CC)CCOC(=O)C(c1ccccc1)c1ccccc1
7,6.35,COc1ccc(N2C(=O)CSC23C(=O)N2CCCc4cccc3c42)cc1 (centres undefined)
8,6.67,CN(C)CCCOC(=O)C1c2ccccc2Oc2ccccc21
9,7.14,Cc1ccc(C(=O)C2CCN(CC(=O)NC3CCCCC3)CC2)cc1
10,7.15,Cc1ccc2c(c1)NC(=O)C(CC(=O)Nc1ccc(CN3CCC(C)CC3)cc1)O2 (centres undefined)
11,7.48,CC1CCN(Cc2ccc(NC(=O)CC3Oc4ccccc4NC3=O)cc2)CC1 (centres undefined)
12,7.93,CN(C)CCOC(=O)C(c1ccccc1)C1(O)CCCC1 (centres undefined)
